Laboratory results reported in PMC9144581, “In Vitro Anti-Proliferative, and Kinase Inhibitory Activity of Phenanthroindolizidine Alkaloids Isolated from Tylophora indica” (Plants, 2022).
Read-outs that look alike come from different tables or passages of the source.

What was measured:
[1] = tested on: HCT-116; assay: MTT anti-proliferative assay, HCT-116; type: cell-based, Human; conditions: read-out: IC50 ± SD, HCT-116
Procedure: (§1) The cells proliferations were determined by MTT [3-(4,5-dimethylthiazol-2-yl)-2,5-diphenyltetrazolium bromide] assays, wherein MTT color intensity was directly associated with the number of healthy, living cells. The three cancer cell lines, i.e., MCF-7, Michigan Cancer Foundation-7; HepG2, Human hepatocellular carcinoma; and HCT-116, Human colorectal carcinoma, were obtained from the Laboratory of Parasitology, Faculty of Medicine, Universitas Gadjah Mada Indonesia. The cells were cultured in DMEM (Dulbecco’s Modified Eagle’s Medium) (Gibco, Waltham, MA, USA) with 10% Fetal Bovine Serum (FBS, Gibco), 2% Sodium bicarbonate (NaHCO3, Gibco), and HEPES (4-2(2-hydroxyethyl)-1-piperazine ethane sulfonic acid) (Invitrogen). The cell lines were maintained at 37 °C in a humidified incubator containing 5% CO2. The IC50 values as µM were determined after 48-h of compounds incubations with the cells. The assays were determined as mean ± SD: Standard Deviation (n = 3) (p < 0.005, compared with the standard value).

[2] = biological target: T1, Aurora-B (Homo sapiens, UniProt Q96GD4); assay: Radiometric protein kinase assay, Aurora-B; type: biochemical
T1 construct: purchased Sigma-Aldrich
T1 sequence (Q96GD4 whole entry): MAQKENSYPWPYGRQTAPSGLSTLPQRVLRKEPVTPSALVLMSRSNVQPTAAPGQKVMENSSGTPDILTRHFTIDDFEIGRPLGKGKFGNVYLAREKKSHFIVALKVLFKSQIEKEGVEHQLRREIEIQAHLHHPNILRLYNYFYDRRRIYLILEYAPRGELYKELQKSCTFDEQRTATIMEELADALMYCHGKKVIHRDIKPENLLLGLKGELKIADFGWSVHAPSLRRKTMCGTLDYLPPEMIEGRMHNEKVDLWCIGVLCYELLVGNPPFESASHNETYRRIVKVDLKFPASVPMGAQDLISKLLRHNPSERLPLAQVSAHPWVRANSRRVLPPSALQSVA
Procedure: (§2) The radiometric protein kinase assays (RPKA) were used to investigate the kinase inhibitory effects of the isolated compounds. The method was dependent on the incorporation of radioactive ^33P isotope with ATP, and the percentage of phosphorylation was determined using the microplate-scintillation counter (Microbeta, Wallac, Finland) method. The half-maximal inhibitory concentration (IC50) values of compounds were measured by a microplate-scintillation counter. The control mixture (without peptide substrate) measures endogenous phosphorylation of proteins in the Protein Kinase Sample by-^33P-ATP. The purified protein kinases were used as positive controls for the assay (Sigma-Aldrich, St. Louis, MO, USA).

[3] = tested on: HepG2; assay: MTT anti-proliferative assay, HepG2; type: cell-based, Human; conditions: read-out: IC50 ± SD, HepG2
Procedure: as §1

[4] = tested on: MCF-7; assay: MTT anti-proliferative assay, MCF-7; type: cell-based; conditions: read-out: IC50 ± SD, MCF-7
Procedure: as §1

[5] = biological target: T2, Aurora-A (Homo sapiens, UniProt O14965); assay: Radiometric protein kinase assay, Aurora-A; type: biochemical
T2 construct: purchased Sigma-Aldrich
T2 sequence (O14965 1-403): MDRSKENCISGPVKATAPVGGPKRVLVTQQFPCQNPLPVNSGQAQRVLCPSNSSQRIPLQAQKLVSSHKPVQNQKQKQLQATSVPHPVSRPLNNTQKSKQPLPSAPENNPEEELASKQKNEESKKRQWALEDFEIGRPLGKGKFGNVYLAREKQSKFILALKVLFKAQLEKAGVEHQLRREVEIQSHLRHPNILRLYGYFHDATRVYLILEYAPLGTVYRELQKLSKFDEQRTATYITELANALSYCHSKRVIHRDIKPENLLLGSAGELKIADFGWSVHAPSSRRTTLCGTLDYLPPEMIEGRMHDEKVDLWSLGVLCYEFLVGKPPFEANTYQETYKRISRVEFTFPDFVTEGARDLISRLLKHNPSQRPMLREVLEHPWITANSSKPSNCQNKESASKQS
Procedure: as §2

[6] = MTT assay, 48-h incubation, n = 3
[7] = Homo sapiens, HCT-116, MTT assay, 48-h incubation, n = 3
[8] = radiometric kinase assay, 33P-ATP, average of three independent experiments, read-out: IC50 Values, Aurora-B
[9] = Homo sapiens, HepG2, MTT assay, 48-h incubation, n = 3
[10] = Homo sapiens, MCF7, MTT assay, 48-h incubation, n = 3
[11] = radiometric kinase assay, 33P-ATP, average of three independent experiments, read-out: IC50 Values, Aurora-A

SMILES	IC50 ([1]; Homo sapiens, HCT-116, 48 h) [µM]	IC50 [2] [µM]	IC50 ([3]; Homo sapiens, HepG2, 48 h) [µM]	IC50 ([4]; Homo sapiens, MCF7, 48 h) [µM]	IC50 [5] [µM]	IC50 [1, 7] [µM]	IC50 [2, 8] [µM]	IC50 [3, 9] [µM]	IC50 [4, 10] [µM]	IC50 [5, 11] [µM]	further results
COc1ccc2c3c(c4cc(OC)c(OC)cc4c2c1)CN1CCC[C@H]1[C@@H]3O [Compound 3, 3,6,7-trimethoxy-14α-hydroxy-phenanthroindolizidine]	87 ± 3.08	3.6 ± 0.93	23.8 ± 3.02	32 ± 2.64	4.1 ± 1.08	–	–	–	–	–	–
N.N.[Cl][Pt][Cl] [Cisplatin, reference compound]	–	–	–	–	–	–	–	–	–	–	IC50 [1, 6]: 14.4 ± 1.69 µM; IC50 [3, 6]: 12.9 ± 0.91 µM; IC50 [4, 6]: 5.7 ± 0.76 µM
COc1ccc2c3c(c4cc(OC)c(OC)cc4c2c1)C[N+]1([O-])CCC[C@H]1[C@H]3O (stereo partly drawn) [Compound 4, 3,6,7-trimethoxy-14α-hydroxy-phenanthroindolizidine-N-Oxide]	–	–	–	–	–	> 200	> 100	197	> 200	> 100	–
COc1ccc(C2=C(c3ccc(OC)c(OC)c3)CN3CCCC3C2)cc1OC (centres unmarked) [Compound 7, 6,7-Bis (3,4-dimethoxyphenyl)-1,2,3,5,8,8a-hexahydroindolizine]	> 200	> 100	> 200	> 200	> 100	–	–	–	–	–	–
COc1cc2c3c(c4cc(OC)c(OC)cc4c2cc1OC)CN1CCC[C@@H]1C3 [Compound 1, (-)-Tylophorine]	142 ± 3.06	18.3 ± 1.32	40.1 ± 2.94	126	21.4 ± 1.24	–	–	–	–	–	–
COc1cc2c3c(c4cc(OC)c(OC)cc4c2cc1OC)[C@@H](O)[C@H]1CCCN1C3 [Compound 2, 2,3,6,7-tetramethoxy-14β-hydroxy-phenanthroindolizidine]	–	–	–	–	–	75.5	10.2 ± 1.21	35.3 ± 2.97	50.7 ± 2.86	16.2 ± 1.43	–
COC(=O)[C@]1(O)C[C@@H](O)[C@@H](O)[C@H](OC(=O)/C=C/c2ccc(O)c(O)c2)C1 [Compound 9, chlorogenic acid methyl ester]	–	–	–	–	–	> 200	–	> 200	> 200	–	–
COc1ccc2c3c(c4cc(OC)c(O)cc4c2c1)CN1CCC[C@H]1[C@H]3O [Compound 5, 14α-hydroxy-6-demethyl Tylophorinine]	–	–	–	–	–	20.1 ± 1.94	1.3 ± 0.58	4.77 ± 2.11	6.45 ± 2.06	0.6 ± 0.72	–
COc1ccc2c3c(c4cc(OC)c(O)cc4c2c1)C[N+]1([O-])CCCC1C3O (stereo not drawn) [Compound 6, 14α-hydroxy-6-demethyltylophorinine N-Oxide]	–	–	–	–	–	65.6 ± 2.24	6.5 ± 0.76	15.3 ± 2.04	12.2 ± 1.81	2.6 ± 0.86	–
O=C(/C=C/c1ccc(O)c(O)c1)O[C@@H]1C[C@](O)(C(=O)O)C[C@@H](O)[C@H]1O [Compound 8, chlorogenic acid]	–	–	–	–	–	> 200	–	170	134	–	–
